Test results taken from patent US20250051293A1, “NOVEL OXADIAZOLE DERIVATIVE AND USE THEREOF” (CELROS BIOTECH, priority 2021, published 2025).
Read-outs that look alike come from different tables or passages of the source.

Assays:
[1] = molecular target: T1, human NOX2 (Homo sapiens, UniProt P04839); assay: Lucigenin chemiluminescence assay, drosophila membranes expressing hNOX2; assay type: biochemical; settings: average of three repeats
T1 construct: made in house; host or cells: transgenic Drosophila (Da-GAL4 driven UAS-hNOX2, dDuox RNAi background); membranes from homogenized flies
T1 sequence (P04839 2-570 limits assumed): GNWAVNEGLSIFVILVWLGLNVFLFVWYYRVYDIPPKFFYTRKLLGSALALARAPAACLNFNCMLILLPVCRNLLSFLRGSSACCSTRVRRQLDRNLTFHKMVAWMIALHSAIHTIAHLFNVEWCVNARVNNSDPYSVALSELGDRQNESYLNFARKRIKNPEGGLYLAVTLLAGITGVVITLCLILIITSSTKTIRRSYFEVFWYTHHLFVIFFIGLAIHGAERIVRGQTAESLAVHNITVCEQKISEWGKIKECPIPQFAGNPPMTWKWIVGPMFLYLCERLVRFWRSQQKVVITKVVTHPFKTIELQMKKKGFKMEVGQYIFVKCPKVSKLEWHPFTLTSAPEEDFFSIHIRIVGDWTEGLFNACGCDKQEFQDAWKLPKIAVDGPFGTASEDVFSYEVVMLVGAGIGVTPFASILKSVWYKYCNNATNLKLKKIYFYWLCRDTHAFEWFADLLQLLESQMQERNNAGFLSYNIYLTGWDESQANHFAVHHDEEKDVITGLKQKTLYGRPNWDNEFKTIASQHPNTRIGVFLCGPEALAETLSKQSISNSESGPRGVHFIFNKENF
Experimental: (§1) Human NOX isozymes were provided from transgenic flies expressing human NOX isozymes from the daughterless (Da)-GAL4 promoter. The genotype of each fly line is shown below. • human NOX2:UAS-hNOX2/UAS-dDuox-RNAi; Da-GAL4/+ • human NOX4:UAS-hNOX4/UAS-dDuox-RNAi; Da-GAL4/+
(§2) Transgenic flies were homogenized in PBS containing protease inhibitors (aprotinin, leupeptin) to obtain drosophila membranes of each NOX isozyme. The membranes were incubated with the compounds (100 μM, 10 μM, 1 μM, 0.1 μM, 0.01 μM, 0.001 μM, and 0 μM) for 10 minutes in a shaker. Then, to the membranes, a mixture of 500 μM NADPH (R-nicotinamide adenine dinucleotide 2′-phosphate reduced tetrasodium salt hydrate; Sigma-Aldrich) and 400 μM lucigenin (N,N′-dimethyl-9,9-biacridinium dinitrate; Sigma-Aldrich) in 1× HEPES (4-(2-hydroxyethyl)-1-piperazineethanesulfonic acid) buffer was added. Lucigenin chemiluminescence was detected at 1-minute intervals for 10 minutes using a multimode microplate reader (SpectraMax iD3, Molecular Devices). IC50 values were calculated with Graph-Pad Prism 5 (GraphPad Software).
(§3) The lucigenin chemiluminescence assay was performed with drosophila membranes expressing hNOX1, hNOX2, and hNOX4. The assay was repeated three times and the IC50 values were averaged.

[2] = molecular target: T2, human NOX4 (Homo sapiens, UniProt Q9NPH5); assay: Lucigenin chemiluminescence assay, drosophila membranes expressing hNOX4; assay type: biochemical; settings: average of three repeats
T2 construct: made in house; host or cells: transgenic Drosophila (Da-GAL4 driven UAS-hNOX4, dDuox RNAi background); membranes from homogenized flies
T2 sequence (Q9NPH5 1-578): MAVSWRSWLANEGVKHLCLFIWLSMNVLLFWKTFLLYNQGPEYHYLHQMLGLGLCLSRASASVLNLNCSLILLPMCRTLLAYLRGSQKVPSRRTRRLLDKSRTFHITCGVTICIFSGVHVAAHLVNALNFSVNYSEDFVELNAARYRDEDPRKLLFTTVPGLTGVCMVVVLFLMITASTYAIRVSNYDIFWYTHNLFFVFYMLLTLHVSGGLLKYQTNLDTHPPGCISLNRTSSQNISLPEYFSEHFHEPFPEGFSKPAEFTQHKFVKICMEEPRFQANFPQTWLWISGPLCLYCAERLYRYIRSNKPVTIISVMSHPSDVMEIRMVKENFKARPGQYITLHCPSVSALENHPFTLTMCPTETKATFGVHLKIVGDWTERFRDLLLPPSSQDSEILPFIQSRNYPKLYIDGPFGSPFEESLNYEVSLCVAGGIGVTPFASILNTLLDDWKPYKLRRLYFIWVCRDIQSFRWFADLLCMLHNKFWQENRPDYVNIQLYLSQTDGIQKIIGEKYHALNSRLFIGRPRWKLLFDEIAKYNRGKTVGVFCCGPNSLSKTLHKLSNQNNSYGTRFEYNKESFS
Experimental: as §1, §2, §3

[3] = Metabolic stability in human liver microsomes; assay type: in vitro ADME; settings: human liver microsomes 0.5 mg/ml, 1 μM, 30 minutes, 37° C., NADPH
Experimental: The stability of a drug may be predicted by using liver microsomes to determine the extent to which the drug is metabolized in the liver. […] Thus, a metabolic stability verification experiment was performed on the oxadiazole derivatives according to The present disclosure.
Specifically, sample treatment human liver microsomes (0.5 mg/ml), 0.1 M phosphate buffer (pH 7.4), and test compound at a concentration of 1 μM were added, and the mixture was pre-incubated at 37° C. for 5 minutes, followed by addition of NADPH Regeneration system solution and incubation at 37° C. for 30 minutes. An acetonitrile solution containing an internal standard (chlorpropamide) was then added to terminate the reaction, followed by centrifugation for 5 minutes (14,000 rpm, 4° C.). Then, the supernatant was injected into the LC-MS/MS system to analyze the substrate drug to evaluate the metabolic stability of the two compounds.
The HPLC column was an Acquity UPLC BEH Amide column (2.1×100 mm, 1.7 μm particle size; Waters, Ireland). The mobile phases were distilled water containing 0.1% formic acid (A) and acetonitrile containing 0.1% formic acid (B). Data analysis was performed using Analyst software (version 1.6.3).

[4] = PAMPA-BBB assay; assay type: in vitro ADME
Experimental: The parallel artificial membrane permeability assay (PAMPA) was performed to determine the brain barrier blood (BBB) permeability. […] For the Blank measurement, the donor buffer was dispensed into a high sensitivity UV plate at 150 μl per well and the UV values were measured (Blank sample). For the initial value measurement, the mixture in the deep well plate was dispensed 150 μl per well into the UV plate and the UV values were measured (initial sample). Next, 200 μl of the test compound mixture was dispensed onto the donor plate of the PAMPA sandwich, and the acceptor plate of the PAMPA sandwich was inverted and the membrane was coated with 5 μl of BBB-lipid solution. Then, 200 μl of acceptor sink buffer was added to each well of the acceptor plate, and the acceptor plate and donor plate were combined and incubated at 25° C. for 4 hours. […] Finally, the permeability (Pe(10^−6 cm/sec)) was analyzed using the PAMPA explore program. The experiment was performed in three replicates. The permeability of the material was analyzed by UV measurement and LC-MS/MS, the specific conditions of which are described below.

[5] = tested on: U87; assay: Mouse model xenografted with brain tumor glioblastoma U87; assay type: in vivo, mice; settings: Example 2 study: Example 2 50 mg/kg 5 times per week, TMZ 5 mg/kg 2 times per week, from 20 days after xenografting; vehicle 42 days
Experimental: To confirm the therapeutic effect on brain tumor glioblastoma, U87 (5×10^4), a human brain tumor cell line, was xenografted into the brains of mice to establish a brain tumor model, followed by oral administration of the drugs.
Different experimental groups were evaluated for each compound.
First, with respect to the compound of Example 1, the experimental groups were divided into Vehicle (n=3) and the compound of Example 1, 50 mg/kg (n=3) and the administered with the drug orally 5 times a week 20 days after U87 xenografting.
With respect to the compound of Example 2, the experimental groups were divided into Vehicle (n=9), TMZ 5 mg/kg (Temozolomide, n=10, 2 times per week), the compound of Example 2, 50 mg/kg (n=8, 5 times per week), and combination (TMZ+the compound of Example 2, n=7), and began receiving the drug 20 days after U87 xenografting.

[6] = 50 μM, incubation 4 hr, pH 7.4, 25° C., U.V, read-out: Permeability Pe

SMILES | IC50 [1] [nM] | IC50 [2] [nM] | Human (% ) remaining, microsomal stability [3] [%] | Papp at 4 h, 50 μM [4, 6] [×10⁻⁶ cm/s] | median survival time [5] [days] | Papp at 4 h, 50 μM ([4]; pH 7.4) [×10⁻⁶ cm/s]
O=C(Nc1nnc(-c2ccccc2)o1)c1ccc(I)c(C(F)(F)F)c1 [Example 7, 4-iodo-N-(5-phenyl-1,3,4-oxadiazol-2-yl)-3-(trifluoromethyl)benzamide] | 190 | 120 | – | – | – | –
O=C(Nc1nnc(-c2cccc(C(F)(F)F)c2)o1)c1cc(F)cc(C(F)(F)F)c1 [Example 12, 3-fluoro-5-(trifluoromethyl)-N-(5-(3-(trifluoromethyl)phenyl)-1,3,4-oxadiazol-2-yl)benzamide] | 140 | 120 | 90.0 | – | – | –
O=C(Nc1nnc(-c2cccc(-c3ccoc3)c2)o1)c1cc(F)cc(C(F)(F)F)c1 [Example 11] | 170 | 260 | – | > 0.4 | – | –
O=C(Nc1nnc(-c2cccc(Br)c2)o1)c1cc(F)cc(C(F)(F)F)c1 [Example 13, N-(5-(3-bromophenyl)-1,3,4-oxadiazol-2-yl)-3-fluoro-5-(trifluoromethyl)benzamide] | 150 | 170 | 79.0 | > 0.4 | – | –
O=C(Nc1nnc(-c2cccc(-c3ccoc3)c2)o1)c1ccc(F)c(C(F)(F)F)c1 [Example 10] | 100 | 160 | 94.9 | > 0.4 | – | –
Cn1nnc2c(C(N)=O)ncn2c1=O [TMZ, Temozolomide, reference compound] | – | – | – | – | 54.5 | –
CNC(=C[N+](=O)[O-])NCCSCc1ccc(CN(C)C)o1 [Ranitidine, reference compound] | – | – | – | – | – | < 0.4
O=C(Nc1nnc(-c2ccccc2)o1)c1cc(F)cc(C(F)(F)F)c1 [Example 3, 3-fluoro-N-(5-phenyl-1,3,4-oxadiazol-2-yl)-5-(trifluoromethyl)benzamide] | 240 | 380 | – | – | – | –
O=C(Nc1nnc(-c2cccc(Br)c2)o1)c1ccc(F)c(C(F)(F)F)c1 [Example 4, N-(5-(3-bromophenyl)-1,3,4-oxadiazol-2-yl)-4-fluoro-3-(trifluoromethyl)benzamide] | 210 | 250 | – | – | – | –
O=C(Nc1nnc(-c2cccc(-c3ccsc3)c2)o1)c1cc(F)cc(C(F)(F)F)c1 [Example 9] | 150 | 130 | – | – | – | –
O=C(Nc1nnc(-c2cccc(Cl)c2)o1)c1ccc(F)c(C(F)(F)F)c1 [Example 6, N-(5-(3-chlorophenyl)-1,3,4-oxadiazol-2-yl)-4-fluoro-3-(trifluoromethyl)benzamide] | 230 | 270 | – | – | – | –
O=C(Nc1nnc(-c2cccc(-c3ccsc3)c2)o1)c1ccc(F)c(C(F)(F)F)c1 [Example 8] | 160 | 190 | – | – | – | –
O=C(Nc1nnc(-c2cccc(C(F)(F)F)c2)o1)c1ccc(F)c(C(F)(F)F)c1 [Example 5, 4-fluoro-3-(trifluoromethyl)-N-(5-(3-(trifluoromethyl)phenyl)-1,3,4-oxadiazol-2-yl)benzamide] | 180 | 140 | – | – | – | –
CC(=O)[C@H]1CC[C@H]2[C@@H]3CCC4=CC(=O)CC[C@]4(C)[C@H]3CC[C@]12C [Progesterone, reference compound] | – | – | – | – | – | > 0.4
